Patent US7772263B2, “Compounds for the treatment of inflammatory disorders” (Schering Corporation, priority 2006, dated 2010)

Target: T1, purified catalytic domain of recombinant human TACE (rhTACEc) (Homo sapiens, UniProt P78536, N452Q/S266A)
T1 construct: rhTACEc, Residue 215 to 477 with two mutation (S266A and N4520) and a 6×His tail; 6xHis (C); made in house; host or cells: baculovirus/Hi5 insect cells
Assay: TACE kinetic assay, cleavage of internally quenched fluorescent peptide substrate SPDL-3
Format: biochemical
Settings: TACE inhibition, Table 1001; read-out: Ki Rating

T1 sequence (P78536 215-477 S266A/N452Q limits assumed): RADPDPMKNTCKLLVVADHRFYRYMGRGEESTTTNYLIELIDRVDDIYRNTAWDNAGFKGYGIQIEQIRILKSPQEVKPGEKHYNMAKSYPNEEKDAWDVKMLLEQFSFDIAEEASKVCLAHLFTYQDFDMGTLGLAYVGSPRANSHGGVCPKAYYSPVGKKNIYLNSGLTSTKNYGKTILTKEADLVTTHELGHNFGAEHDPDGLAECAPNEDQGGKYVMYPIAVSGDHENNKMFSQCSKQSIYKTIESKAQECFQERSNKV

Row | SMILES | Ki [nM]
1 | COc1ccc2c(c1)C(=O)N(CC1(C#Cc3cnn(C)c3)NC(=O)NC1=O)C2 (centres unmarked) [Compound 312B] | < 5
2 | COc1ccc2c(c1)C(=O)N(CC1(C#Cc3cccnc3)NC(=O)NC1=O)C2 (centres unmarked) [Compound 312] | < 5
3 | COc1ccc2c(c1)C(=O)N(C[C@@]1(C#Cc3cccnc3)NC(=O)NC1=O)C2 [Compound 400B] | < 5
4 | C#C[C@]1(CN2Cc3ccc(OC)cc3C2=O)NC(=O)NC1=O [Compound 401] | < 5
5 | COc1ccc2c(c1)C(=O)N(C[C@@]1(C#Cc3ccc(F)cc3)NC(=O)NC1=O)C2 [Compound 411] | < 5
6 | COc1ccc2c(c1)C(=O)N(C[C@@]1(C#Cc3ccc(CN4CCCC4)nc3)NC(=O)NC1=O)C2 [Compound 413D] | < 5
7 | COc1ccc2c(c1)C(=O)N(C[C@@]1(C#Cc3ccc(C4(N)CC4)nc3)NC(=O)NC1=O)C2 [Compound 414B] | 5 to 25
8 | COc1ccc2c(c1)C(=O)N(C[C@@]1(C#Cc3ccc4cnn(C)c4c3)NC(=O)NC1=O)C2 [Compound 423] | < 5
9 | COc1ccc2c(c1)C(=O)N(C[C@@]1(C#Cc3cc(F)c(F)c(OC)c3)NC(=O)NC1=O)C2 [Compound 434] | < 5
10 | COc1ccc2c(c1)C(=O)N(C[C@@]1(C#Cc3cc(O)c(F)c(F)c3)NC(=O)NC1=O)C2 [Compound 435] | < 5
11 | COc1ccc2c(c1)C(=O)N(C[C@@]1(C#Cc3cccc(Cl)c3C)NC(=O)NC1=O)C2 [Compound 438] | < 5
12 | COc1ccc2c(c1)C(=O)N(C[C@@]1(C#Cc3cc(C)cc(F)c3)NC(=O)NC1=O)C2 [Compound 439] | < 5
13 | COc1ccc2c(c1)C(=O)N(C[C@@]1(C#Cc3ccc4c(cnn4C)c3)NC(=O)NC1=O)C2 [Compound 444] | < 5
14 | COc1ccc2c(c1)C(=O)N(C[C@@]1(C#Cc3cncnc3)NC(=O)NC1=O)C2 [Compound 450] | < 5
15 | COc1ccc2c(c1)C(=O)N(C[C@@]1(C#Cc3cc(F)cc(Cl)c3)NC(=O)NC1=O)C2 [Compound 456] | < 5
16 | COc1ccc2c(c1)C(=O)N(C[C@@]1(C#Cc3cc(F)cc(C#N)c3)NC(=O)NC1=O)C2 [Compound 458] | < 5
17 | COc1ccc2c(c1)C(=O)N(C[C@@]1(C#Cc3cccc(C(F)(F)F)c3)NC(=O)NC1=O)C2 [Compound 459] | < 5
18 | COc1ccc2c(c1)C(=O)N(C[C@@]1(C#Cc3ccc4nccn4c3)NC(=O)NC1=O)C2 [Compound 460] | < 5
19 | COc1ccc2c(c1)C(=O)N(C[C@@]1(C#Cc3cccs3)NC(=O)NC1=O)C2 [Compound 463] | < 5
20 | COc1ccc2c(c1)C(=O)N(C[C@@]1(C#Cc3ccsc3)NC(=O)NC1=O)C2 [Compound 464] | < 5
21 | COc1ccc2c(c1)C(=O)N(C[C@@]1(C#Cc3csc(C(C)C)n3)NC(=O)NC1=O)C2 [Compound 465] | < 5
22 | COc1ccc2c(c1)C(=O)N(C[C@@]1(C#Cc3c(F)ccc(F)c3F)NC(=O)NC1=O)C2 [Compound 466] | < 5
23 | COc1ccc2c(c1)C(=O)N(C[C@@]1(C#Cc3ncccn3)NC(=O)NC1=O)C2 [Compound 468] | < 5
24 | COc1ccc2c(c1)C(=O)N(C[C@@]1(C#Cc3cnc(C)s3)NC(=O)NC1=O)C2 [Compound 471] | < 5
25 | COc1ccc2c(c1)C(=O)N(C[C@@]1(C#Cc3ccc(C4CC4)nc3)NC(=O)NC1=O)C2 [Compound 472] | < 5
26 | COc1ccc2c(c1)C(=O)N(C[C@@]1(C#Cc3cncc(C#N)c3)NC(=O)NC1=O)C2 [Compound 481] | < 5
27 | COc1ccc2c(c1)C(=O)N(C[C@@]1(C#Cc3cncc(-n4cccn4)c3)NC(=O)NC1=O)C2 [Compound 482B] | < 5
28 | COc1ccc2c(c1)C(=O)N(C[C@@]1(C#Cc3cncc(-n4ccnc4C)c3)NC(=O)NC1=O)C2 [Compound 482C] | < 5
29 | COc1ccc2c(c1)C(=O)N(C[C@@]1(C#Cc3cncc(N4CCOCC4)c3)NC(=O)NC1=O)C2 [Compound 482] | < 5
30 | COc1ccc2c(c1)C(=O)N(C[C@@]1(C#Cc3ccc(F)c(F)c3)NC(=O)NC1=O)C2 [Compound 483] | < 5

Now from value to compound:

Row | Ki [nM] | SMILES
31 | < 5 | COc1ccc2c(c1)C(=O)N(CC1(C#Cc3ccc(F)cc3F)NC(=O)NC1=O)C2 (centres unmarked) [Compound 315A]
32 | < 5 | COc1ccc2c(c1)C(=O)N(CC1(C#Cc3ccc(F)cc3)NC(=O)NC1=O)C2 (centres unmarked) [Compound 315]
33 | < 5 | COc1ccc2c(c1)C(=O)N(C[C@@]1(C#Cc3cncc(-c4cnn(C)c4)c3)NC(=O)NC1=O)C2 [Compound 409C]
34 | < 5 | COc1ccc2c(c1)C(=O)N(C[C@@]1(C#Cc3cncc(N4CCCC4)c3)NC(=O)NC1=O)C2 [Compound 410B]
35 | < 5 | CNc1nc2ccc(C#C[C@]3(CN4Cc5ccc(OC)cc5C4=O)NC(=O)NC3=O)cc2s1 [Compound 412D]
36 | < 5 | COc1ccc2c(c1)C(=O)N(C[C@@]1(C#Cc3ccc[nH]c3=O)NC(=O)NC1=O)C2 [Compound 417C]
37 | < 5 | COc1ccc2c(c1)C(=O)N(C[C@@]1(C#Cc3ccc4nn(C)cc4c3)NC(=O)NC1=O)C2 [Compound 421]
38 | < 5 | COc1ccc2c(c1)C(=O)N(C[C@@]1(C#Cc3ccc4nc(C)ccc4c3)NC(=O)NC1=O)C2 [Compound 422]
39 | < 5 | COc1ccc2c(c1)C(=O)N(C[C@@]1(C#Cc3ccc4cn(C)nc4c3)NC(=O)NC1=O)C2 [Compound 424]
40 | < 5 | COc1ccc2c(c1)C(=O)N(C[C@@]1(C#Cc3cncc4ccccc34)NC(=O)NC1=O)C2 [Compound 425]
41 | < 5 | COc1ccc2c(c1)C(=O)N(C[C@@]1(C#Cc3ccc(F)c(C(F)(F)F)c3)NC(=O)NC1=O)C2 [Compound 426]
42 | < 5 | COc1ccc2c(c1)C(=O)N(C[C@@]1(C#Cc3ccc(C)c(F)c3)NC(=O)NC1=O)C2 [Compound 427]
43 | < 5 | COc1ccc2c(c1)C(=O)N(C[C@@]1(C#Cc3ccc(C)c(Cl)c3)NC(=O)NC1=O)C2 [Compound 428]
44 | < 5 | COc1ccc2c(c1)C(=O)N(C[C@@]1(C#Cc3cccc(OC(F)(F)F)c3)NC(=O)NC1=O)C2 [Compound 429]
45 | < 5 | COc1ccc2c(c1)C(=O)N(C[C@@]1(C#Cc3cncc(F)c3)NC(=O)NC1=O)C2 [Compound 430]
46 | < 5 | COc1ccc2c(c1)C(=O)N(C[C@@]1(C#Cc3ccc(F)c(C)c3)NC(=O)NC1=O)C2 [Compound 432]
47 | < 5 | COc1ccc2c(c1)C(=O)N(C[C@@]1(C#Cc3ccc(F)cc3Cl)NC(=O)NC1=O)C2 [Compound 433]
48 | < 5 | COc1ccc2c(c1)C(=O)N(C[C@@]1(C#Cc3ccc(C(F)(F)F)c(F)c3)NC(=O)NC1=O)C2 [Compound 436]
49 | < 5 | COc1ccc2c(c1)C(=O)N(C[C@@]1(C#Cc3cccc(F)c3C)NC(=O)NC1=O)C2 [Compound 437]
50 | < 5 | COc1ccc2c(c1)C(=O)N(C[C@@]1(C#Cc3cc(F)cc(C(F)(F)F)c3)NC(=O)NC1=O)C2 [Compound 440]
51 | < 5 | COc1ccc2c(c1)C(=O)N(C[C@@]1(C#Cc3cccc4ncccc34)NC(=O)NC1=O)C2 [Compound 441]

Row | Ki [nM] | SMILES
52 | < 5 | COc1ccc2c(c1)C(=O)N(C[C@@]1(C#Cc3cccc4cnccc34)NC(=O)NC1=O)C2 [Compound 442]
53 | < 5 | COc1ccc2c(c1)C(=O)N(C[C@@]1(C#Cc3cnc4ccccc4c3)NC(=O)NC1=O)C2 [Compound 443]
54 | < 5 | COc1ccc2c(c1)C(=O)N(C[C@@]1(C#Cc3cccc(F)c3)NC(=O)NC1=O)C2 [Compound 445]
55 | < 5 | COc1ccc2c(c1)C(=O)N(C[C@@]1(C#Cc3cccc(Cl)c3)NC(=O)NC1=O)C2 [Compound 446]
56 | < 5 | COc1ccc2c(c1)C(=O)N(C[C@@]1(C#Cc3cccc(C#N)c3)NC(=O)NC1=O)C2 [Compound 447]
57 | < 5 | COc1ccc2c(c1)C(=O)N(C[C@@]1(C#Cc3cc(F)cc(F)c3)NC(=O)NC1=O)C2 [Compound 448]
58 | < 5 | COc1ccc2c(c1)C(=O)N(C[C@@]1(C#Cc3cc(Cl)cc(Cl)c3)NC(=O)NC1=O)C2 [Compound 449]
59 | < 5 | COc1ccc2c(c1)C(=O)N(C[C@@]1(C#Cc3cccc(S(C)(=O)=O)c3)NC(=O)NC1=O)C2 [Compound 451]
60 | < 5 | COc1ccc2c(c1)C(=O)N(C[C@@]1(C#Cc3ccc(Cl)c(F)c3)NC(=O)NC1=O)C2 [Compound 452]
61 | < 5 | COc1ccc2c(c1)C(=O)N(C[C@@]1(C#Cc3cnc(N)nc3)NC(=O)NC1=O)C2 [Compound 453]
62 | < 5 | COc1ccc2c(c1)C(=O)N(C[C@@]1(C#Cc3nccs3)NC(=O)NC1=O)C2 [Compound 454]
63 | < 5 | COc1ccc2c(c1)C(=O)N(C[C@@]1(C#Cc3cscn3)NC(=O)NC1=O)C2 [Compound 455]
64 | < 5 | COc1ccc2c(c1)C(=O)N(C[C@@]1(C#Cc3c(C)nn(C)c3C)NC(=O)NC1=O)C2 [Compound 457]
65 | < 5 | COc1ccc2c(c1)C(=O)N(C[C@@]1(C#Cc3cc(F)cc(F)c3F)NC(=O)NC1=O)C2 [Compound 461]
66 | < 5 | COc1ccc2c(c1)C(=O)N(C[C@@]1(C#Cc3cc(Cl)cc(C#N)c3)NC(=O)NC1=O)C2 [Compound 462]
67 | < 5 | COc1ccc2c(c1)C(=O)N(C[C@@]1(C#Cc3csc(C)n3)NC(=O)NC1=O)C2 [Compound 467]
68 | < 5 | COc1ccc2c(c1)C(=O)N(C[C@@]1(C#Cc3cnccn3)NC(=O)NC1=O)C2 [Compound 469]
69 | < 5 | COc1ccc2c(c1)C(=O)N(C[C@@]1(C#Cc3ncnc4ccccc34)NC(=O)NC1=O)C2 [Compound 470]
70 | < 5 | COc1ccc2c(c1)C(=O)N(C[C@@]1(C#Cc3cncc(C4(N)CC4)c3)NC(=O)NC1=O)C2 [Compound 480]
71 | < 5 | COc1ccc2c(c1)C(=O)N(C[C@@]1(C#Cc3ccc(OC(F)(F)F)cc3)NC(=O)NC1=O)C2 [Compound 484]
72 | < 5 | COc1ccc2c(c1)C(=O)N(C[C@@]1(C#Cc3ccc(Cl)cc3)NC(=O)NC1=O)C2 [Compound 485]

Same assay, conditions: rhTACEc 70 pM, 30 μM SPDL-3, 90 min pre-incubation at 25° C.; read-out: Ki (nM), TACE inhibitory activity

Row | Ki [nM] | SMILES
73 | 0.44 | COc1ccc2c(c1)C(=O)N(C[C@@]1(C#Cc3cccnc3)NC(=O)NC1=O)C2 [Compound 400B]
74 | 0.11 | COc1ccc2c(c1)C(=O)N(C[C@@]1(C#Cc3cccc4cnccc34)NC(=O)NC1=O)C2 [Compound 442]
